Measurements published in ChEMBL document CHEMBL1201862, “PubChem BioAssay data set” (2004).
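The compound was tested at five concentrations on cells cultured in 96-well plates, with a 48-hour exposure period. At the GI50, growth is halved.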 Activity calls are given as the source filed them. Cut-off read from the data, not from the text of the source: active = GI50 up to about 1.1 µM and inactive = higher.

How the values were obtained:
Assay in all cases: inhibition of tumour cell growth, NCI panel, 48 h
Malme-3M = test system: Malme-3M
UACC-257 = test system: UACC-257
SNB-19 = test system: SNB-19
IGROV-1 = test system: IGROV-1
COLO 205 = test system: COLO 205
KM12 = test system: KM12
SW-620 = test system: SW-620
SK-MEL-2 = test system: SK-MEL-2
786-0 = test system: 786-0
HOP-62 = test system: HOP-62
HCT-116 = test system: HCT-116
NCI-H460 = test system: NCI-H460
RPMI-8226 = test system: RPMI-8226
ACHN = test system: ACHN
UO-31 = test system: UO-31
OVCAR-5 = test system: OVCAR-5
NCI-H522 = test system: NCI-H522
MDA-MB-435 = test system: MDA-MB-435
DU-145 = test system: DU-145
MCF7 = test system: MCF7

Structure (SMILES)	GI50 (Malme-3M)	GI50 (UACC-257)	GI50 (SNB-19)	GI50 (IGROV-1)	GI50 (COLO 205)	GI50 (KM12)	GI50 (SW-620)	GI50 (SK-MEL-2)	GI50 (786-0)	GI50 (HOP-62)	GI50 (HCT-116)	GI50 (NCI-H460)	GI50 (RPMI-8226)	GI50 (ACHN)	GI50 (UO-31)	GI50 (OVCAR-5)	GI50 (NCI-H522)	GI50 (MDA-MB-435)	GI50 (DU-145)	GI50 (MCF7)
CC(=O)O[C@]1(C)OC(=O)[C@@H](CC(C)C)N1[N+](=O)[O-]	> 100 µM (inactive)	> 100 µM (inactive)	> 100 µM (inactive)	> 100 µM (inactive)	> 100 µM (inactive)	> 100 µM (inactive)	> 100 µM (inactive)	> 100 µM (inactive)	> 100 µM (inactive)	> 100 µM (inactive)	> 100 µM (inactive)	> 100 µM (inactive)	> 100 µM (inactive)	> 100 µM (inactive)	> 100 µM (inactive)	> 100 µM (inactive)	> 100 µM (inactive)			
Cc1cc(C)c(-n2c(C)c(C)c(C#N)c2N)c(C)c1	25.1 µM (inactive)	18.1 µM (inactive)	87.7 µM (inactive)	37 µM (inactive)	19.7 µM (inactive)	36.1 µM (inactive)	26.5 µM (inactive)	19.5 µM (inactive)	41 µM (inactive)	35.8 µM (inactive)	18.8 µM (inactive)	22.4 µM (inactive)	18.6 µM (inactive)	31.3 µM (inactive)	83.2 µM (inactive)	> 100 µM (inactive)	21 µM (inactive)	23 µM (inactive)	38.1 µM (inactive)	
CCOC(=O)n1c2ccccc2c(=O)n1CCO	> 100 µM (inactive)	> 100 µM (inactive)	> 100 µM (inactive)	> 100 µM (inactive)	> 100 µM (inactive)	> 100 µM (inactive)	> 100 µM (inactive)	> 100 µM (inactive)	> 100 µM (inactive)	> 100 µM (inactive)	> 100 µM (inactive)	> 100 µM (inactive)		> 100 µM (inactive)	> 100 µM (inactive)	> 100 µM (inactive)	> 100 µM (inactive)		> 100 µM (inactive)	> 100 µM (inactive)
COc1cc(/C=C/C(=O)c2sc(Nc3ccccc3)nc2C)ccc1O	> 100 µM (inactive)	> 100 µM (inactive)	> 100 µM (inactive)	> 100 µM (inactive)	> 100 µM (inactive)	> 100 µM (inactive)	> 100 µM (inactive)	> 100 µM (inactive)	> 100 µM (inactive)	40.7 µM (inactive)		> 100 µM (inactive)	83.2 µM (inactive)	50.5 µM (inactive)	43.6 µM (inactive)	> 100 µM (inactive)	42.4 µM (inactive)			
COc1c(C(=O)O)oc2c(OC)cccc12	> 100 µM (inactive)	> 100 µM (inactive)	> 100 µM (inactive)	> 100 µM (inactive)	> 100 µM (inactive)	> 100 µM (inactive)	> 100 µM (inactive)	> 100 µM (inactive)	> 100 µM (inactive)	> 100 µM (inactive)	> 100 µM (inactive)	> 100 µM (inactive)	> 100 µM (inactive)	> 100 µM (inactive)	> 100 µM (inactive)	> 100 µM (inactive)	> 100 µM (inactive)			
COc1cc(C(=O)C/C(CCC(=O)Nc2ccccc2[N+](=O)[O-])=N\NC(N)=O)ccc1O	> 100 µM (inactive)	> 100 µM (inactive)	> 100 µM (inactive)	> 100 µM (inactive)	> 100 µM (inactive)	> 100 µM (inactive)	> 100 µM (inactive)	> 100 µM (inactive)	> 100 µM (inactive)	> 100 µM (inactive)	> 100 µM (inactive)	> 100 µM (inactive)	> 100 µM (inactive)	> 100 µM (inactive)	> 100 µM (inactive)	> 100 µM (inactive)	> 100 µM (inactive)			
O=C(CCc1ccccc1)NS(=O)(=O)c1ccccc1	> 100 µM (inactive)	> 100 µM (inactive)	> 100 µM (inactive)	> 100 µM (inactive)	> 100 µM (inactive)	> 100 µM (inactive)	> 100 µM (inactive)	> 100 µM (inactive)	> 100 µM (inactive)	> 100 µM (inactive)	> 100 µM (inactive)	> 100 µM (inactive)	> 100 µM (inactive)	> 100 µM (inactive)	> 100 µM (inactive)	> 100 µM (inactive)	> 100 µM (inactive)			
CC1=C(/C(C)=N/NC(=O)C(N)=O)Sc2ccccc2N1	> 100 µM (inactive)	> 100 µM (inactive)	> 100 µM (inactive)	> 100 µM (inactive)	> 100 µM (inactive)	> 100 µM (inactive)	> 100 µM (inactive)	> 100 µM (inactive)	> 100 µM (inactive)	> 100 µM (inactive)	10 µM (inactive)	> 100 µM (inactive)	> 100 µM (inactive)	> 100 µM (inactive)	> 100 µM (inactive)	> 100 µM (inactive)	> 100 µM (inactive)			
COc1cc2cc(OC)c3cc4c(cc3c2c(OC)c1OC)OCO4	52.4 µM (inactive)	34.9 µM (inactive)	> 100 µM (inactive)	> 66.8 µM (inactive)	19.6 µM (inactive)	14.2 µM (inactive)	18.6 µM (inactive)	71 µM (inactive)	27.9 µM (inactive)	42.6 µM (inactive)	38.2 µM (inactive)	17.6 µM (inactive)	14.7 µM (inactive)	52.5 µM (inactive)	29.4 µM (inactive)	25.2 µM (inactive)	18 µM (inactive)			
O=C(O)c1ccccn1 [2-PICOLINIC ACID]		> 100 µM (inactive)	> 100 µM (inactive)	> 100 µM (inactive)	> 100 µM (inactive)	> 100 µM (inactive)	> 100 µM (inactive)	> 100 µM (inactive)	> 100 µM (inactive)	> 100 µM (inactive)	> 100 µM (inactive)	> 100 µM (inactive)	> 100 µM (inactive)	> 100 µM (inactive)	> 100 µM (inactive)	> 100 µM (inactive)		> 100 µM (inactive)		> 100 µM (inactive)
Nc1ccc(Cc2ccc(N)c(C(=O)O)c2)cc1C(=O)O	> 100 µM (inactive)	> 100 µM (inactive)	> 100 µM (inactive)	> 100 µM (inactive)	> 100 µM (inactive)	> 100 µM (inactive)	> 100 µM (inactive)	> 100 µM (inactive)	> 100 µM (inactive)	> 100 µM (inactive)	> 100 µM (inactive)	> 100 µM (inactive)	> 100 µM (inactive)	> 100 µM (inactive)	> 100 µM (inactive)	> 100 µM (inactive)	> 100 µM (inactive)	> 100 µM (inactive)		> 100 µM (inactive)
O=C(NO)c1ccc(C(=O)NO)cc1	9.27 µM (inactive)	56.9 µM (inactive)	> 100 µM (inactive)	> 100 µM (inactive)	49.7 µM (inactive)	79.8 µM (inactive)	80.9 µM (inactive)		> 100 µM (inactive)	62.2 µM (inactive)	56.1 µM (inactive)	> 100 µM (inactive)	30.1 µM (inactive)	> 100 µM (inactive)	39.3 µM (inactive)	> 100 µM (inactive)		48 µM (inactive)	34.5 µM (inactive)	> 100 µM (inactive)
O=C(c1ccc(Cl)cc1)c1ccc(OCCCCCCCCCCOc2ccc(C(=O)c3ccc(Cl)cc3)cc2)cc1	> 100 µM (inactive)	> 100 µM (inactive)	> 100 µM (inactive)	> 100 µM (inactive)	> 100 µM (inactive)	> 100 µM (inactive)	> 100 µM (inactive)	> 100 µM (inactive)	> 100 µM (inactive)	> 100 µM (inactive)		> 100 µM (inactive)	> 100 µM (inactive)	> 100 µM (inactive)	> 100 µM (inactive)	> 100 µM (inactive)	> 100 µM (inactive)			
[O-][S+]1Nc2cccc(C(F)(F)F)c2S1 (stereo not given)	51.2 µM (inactive)	32.1 µM (inactive)	67.1 µM (inactive)	38.5 µM (inactive)	19.8 µM (inactive)	21.4 µM (inactive)	9.91 µM (inactive)	24.3 µM (inactive)	42.1 µM (inactive)	49.8 µM (inactive)	27.3 µM (inactive)	40.9 µM (inactive)	29 µM (inactive)	37.2 µM (inactive)	19.1 µM (inactive)	69.8 µM (inactive)	28.1 µM (inactive)			
CC1=C(C(=O)Nc2cc(F)c(F)cc2F)C(c2ccc3c(c2)OCO3)C(C(=O)Nc2cc(F)c(F)cc2F)=C(C)N1	23.3 µM (inactive)	25.9 µM (inactive)	38.4 µM (inactive)	28.7 µM (inactive)	21.8 µM (inactive)	19.2 µM (inactive)	33.5 µM (inactive)	18 µM (inactive)	18.3 µM (inactive)	16.8 µM (inactive)		25.2 µM (inactive)	16 µM (inactive)	19.1 µM (inactive)	12.9 µM (inactive)	19.9 µM (inactive)	14.9 µM (inactive)			
CSC(=S)N/N=C/c1nccc2ccccc12	1.34 µM (inactive)	2.07 µM (inactive)	2.29 µM (inactive)	1.91 µM (inactive)	0.138 µM (active)	2.68 µM (inactive)	0.631 µM (active)	1.07 µM (active)	2.39 µM (inactive)	2.25 µM (inactive)	1.25 µM (inactive)	1.09 µM (active)	0.522 µM (active)	1.23 µM (inactive)	1.94 µM (inactive)	2.74 µM (inactive)	0.34 µM (active)			
